#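 48-hour exposure; five concentrations; linearly interpolated endpoints. GI50 is the concentration that inhibits growth by half. TGI: total growth inhibition.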
# Assays:
# Assay in all cases: growth of human tumour cells (NCI), 48 h
# [1] = test system: KM12 colon
# [2] = test system: A498 renal
# [3] = test system: HCT-15 colon
# [4] = test system: TK-10 renal
# [5] = test system: HCC-2998 colon
# [6] = test system: NCI-H23 lung
# [7] = test system: SNB-75 CNS
# [8] = test system: NCI-H522 lung
# [9] = test system: CAKI-1 renal
# [10] = test system: IGROV1 ovarian
# [11] = test system: KM20L2 colon
# [12] = test system: ACHN renal
# [13] = test system: SR leukemia
# [14] = test system: DLD-1 colon
# [15] = test system: M19-MEL melanoma
# [16] = test system: U251 CNS
# [17] = test system: UO-31 renal
# [18] = test system: OVCAR-3 ovarian
# [19] = test system: EKVX NSCLC
# [20] = test system: MOLT-4 leukemia
# [21] = test system: DMS 273 small cell lung
# [22] = test system: CCRF-CEM leukemia
# [23] = test system: SNB-19 CNS
# [24] = test system: K-562 leukemia
# [25] = test system: SF-295 CNS
# [26] = test system: 786-0 renal
# [27] = test system: SN12C renal
# [28] = test system: LOX IMVI melanoma
# [29] = test system: RXF-631 renal
# [30] = test system: SF-539 CNS
# [31] = test system: HOP-92 NSCLC
# [32] = test system: OVCAR-4 ovarian
# [33] = test system: HT29 colon
# [34] = test system: DMS 114 small cell lung
# [35] = test system: LXFL 529 NSCLC
# [36] = test system: NCI-H226 lung
# [37] = test system: UACC-257 melanoma
# [38] = test system: HOP-18 NSCLC
# [39] = test system: OVCAR-5 ovarian
# [40] = test system: SNB-78 CNS
# [41] = test system: RPMI-8226 leukemia
# [42] = test system: HCT-116 colon
# [43] = test system: NCI-H460 lung
# [44] = test system: SF-268 CNS
# [45] = test system: SK-OV-3 ovarian
# [46] = test system: SW-620 colon
# [47] = test system: SK-MEL-5 melanoma
# [48] = test system: M14 melanoma
# [49] = test system: COLO 205 colon
# [50] = test system: OVCAR-8 ovarian
# [51] = test system: HL-60(TB) leukemia
# [52] = test system: SK-MEL-28 melanoma
# [53] = test system: SK-MEL-2 melanoma
# [54] = test system: UACC-62 melanoma
# [55] = test system: A549 NSCLC
# [56] = test system: XF 498 CNS
# [57] = test system: MALME-3M melanoma
# [58] = test system: HOP-62 NSCLC
# [59] = test system: RXF 393 renal
smiles,measurement,setting,value
Cc1csc2nc(-c3ccncc3)cn12,TGI,[1],> 100 µM
same,TGI,[2],> 100 µM
same,TGI,[3],> 56.7 µM
same,TGI,[4],> 100 µM
same,TGI,[5],> 100 µM
same,TGI,[6],> 100 µM
same,TGI,[7],> 100 µM
same,TGI,[8],> 100 µM
same,TGI,[9],> 100 µM
same,TGI,[10],> 100 µM
same,TGI,[11],> 100 µM
same,TGI,[12],> 100 µM
same,TGI,[13],51 µM
same,TGI,[14],> 100 µM
same,TGI,[15],> 100 µM
same,TGI,[16],> 72.6 µM
same,TGI,[17],> 100 µM
same,TGI,[18],> 100 µM
same,TGI,[19],> 100 µM
same,TGI,[20],> 100 µM
same,TGI,[21],41 µM
same,TGI,[22],> 61 µM
same,TGI,[23],> 100 µM
same,TGI,[24],> 65.4 µM
same,TGI,[25],> 100 µM
same,TGI,[26],34.5 µM
same,TGI,[27],> 100 µM
same,TGI,[28],> 61.5 µM
same,TGI,[29],> 100 µM
same,TGI,[30],> 65.9 µM
same,TGI,[31],> 100 µM
same,TGI,[32],> 100 µM
same,TGI,[33],> 100 µM
same,TGI,[34],> 60.9 µM
same,TGI,[35],> 76.5 µM
same,TGI,[36],> 100 µM
same,TGI,[37],> 100 µM
same,TGI,[38],> 100 µM
same,TGI,[39],> 100 µM
same,TGI,[40],> 100 µM
same,TGI,[41],> 64.1 µM
same,TGI,[42],> 59.3 µM
same,TGI,[43],> 61.4 µM
same,TGI,[44],> 100 µM
same,TGI,[45],> 100 µM
same,TGI,[46],> 54.2 µM
same,TGI,[47],> 100 µM
same,TGI,[48],> 100 µM
same,TGI,[49],> 79.7 µM
same,TGI,[50],> 100 µM
same,TGI,[51],> 52.4 µM
same,TGI,[52],> 100 µM
same,TGI,[53],> 100 µM
same,TGI,[54],> 100 µM
same,TGI,[55],> 100 µM
same,TGI,[56],> 100 µM
same,TGI,[57],> 100 µM
same,TGI,[58],> 100 µM
CC(C)N(C(C)C)[PH+]1O[PH+](N(C(C)C)C(C)C)O[PH+](N(C(C)C)C(C)C)O[PH+](N(C(C)C)C(C)C)O1.[C-]#[O+].[C-]#[O+].[C-]#[O+].[C-]#[O+].[C-]#[O+].[C-]#[O+].[C-]#[O+].[C-]#[O+].[Mo].[Mo] (centres undefined),GI50,[1],> 100 µM
same,TGI,[1],> 100 µM
same,GI50,[2],> 100 µM
same,TGI,[2],> 100 µM
same,GI50,[3],> 100 µM
same,TGI,[3],> 100 µM
same,GI50,[4],> 100 µM
same,TGI,[4],> 100 µM
same,GI50,[5],> 100 µM
same,TGI,[5],> 100 µM
same,GI50,[6],> 100 µM
same,TGI,[6],> 100 µM
same,GI50,[59],> 100 µM
same,TGI,[59],> 100 µM
same,GI50,[7],> 100 µM
same,TGI,[7],> 100 µM
same,GI50,[8],> 100 µM
same,TGI,[8],> 100 µM
same,GI50,[9],> 100 µM
same,TGI,[9],> 100 µM
same,GI50,[10],> 100 µM
same,TGI,[10],> 100 µM
same,GI50,[11],> 100 µM
same,TGI,[11],> 100 µM
same,GI50,[12],> 100 µM
same,TGI,[12],> 100 µM
same,GI50,[14],> 100 µM
same,TGI,[14],> 100 µM
same,GI50,[15],> 100 µM
same,TGI,[15],> 100 µM
same,GI50,[16],> 100 µM
same,TGI,[16],> 100 µM
same,GI50,[17],> 100 µM
same,TGI,[17],> 100 µM
same,GI50,[18],> 100 µM
same,TGI,[18],> 100 µM
same,GI50,[19],> 100 µM
same,TGI,[19],> 100 µM
same,GI50,[20],> 100 µM
same,TGI,[20],> 100 µM
same,GI50,[21],> 100 µM
same,TGI,[21],> 100 µM
same,GI50,[22],> 100 µM
same,TGI,[22],> 100 µM
same,GI50,[23],> 100 µM
same,TGI,[23],> 100 µM
same,GI50,[24],> 100 µM
same,TGI,[24],> 100 µM
same,GI50,[25],> 100 µM
same,TGI,[25],> 100 µM
same,GI50,[26],> 100 µM
same,TGI,[26],> 100 µM
same,GI50,[27],> 100 µM
same,TGI,[27],> 100 µM
same,GI50,[28],> 100 µM
same,TGI,[28],> 100 µM
same,GI50,[29],> 100 µM
same,TGI,[29],> 100 µM
same,GI50,[30],> 100 µM
same,TGI,[30],> 100 µM
same,GI50,[31],> 100 µM
same,TGI,[31],> 100 µM
same,GI50,[32],> 100 µM
same,TGI,[32],> 100 µM
same,GI50,[33],> 100 µM
same,TGI,[33],> 100 µM
same,GI50,[34],> 100 µM
same,TGI,[34],> 100 µM
same,GI50,[35],> 100 µM
same,TGI,[35],> 100 µM
same,GI50,[36],> 100 µM
same,TGI,[36],> 100 µM
same,GI50,[37],> 100 µM
same,TGI,[37],> 100 µM
same,GI50,[38],> 100 µM
same,TGI,[38],> 100 µM
same,GI50,[39],> 100 µM
same,TGI,[39],> 100 µM
same,GI50,[40],> 100 µM
same,TGI,[40],> 100 µM
same,GI50,[41],> 100 µM
same,TGI,[41],> 100 µM
same,GI50,[42],> 100 µM
same,TGI,[42],> 100 µM
same,GI50,[43],> 100 µM
same,TGI,[43],> 100 µM
same,GI50,[44],> 100 µM
same,TGI,[44],> 100 µM
same,GI50,[45],> 100 µM
same,TGI,[45],> 100 µM
same,GI50,[46],> 100 µM
same,TGI,[46],> 100 µM
same,GI50,[47],> 100 µM
same,TGI,[47],> 100 µM
same,GI50,[48],> 100 µM
same,TGI,[48],> 100 µM
same,GI50,[49],> 100 µM
same,TGI,[49],> 100 µM
same,GI50,[50],> 100 µM
same,TGI,[50],> 100 µM
same,GI50,[51],> 100 µM
same,TGI,[51],> 100 µM
same,GI50,[52],> 100 µM
same,TGI,[52],> 100 µM
same,GI50,[53],> 100 µM
same,TGI,[53],> 100 µM
same,GI50,[54],> 100 µM
same,TGI,[54],> 100 µM
same,GI50,[55],> 100 µM
same,TGI,[55],> 100 µM
same,GI50,[56],> 100 µM
same,TGI,[56],> 100 µM
same,GI50,[57],> 100 µM
same,TGI,[57],> 100 µM
same,GI50,[58],> 100 µM
same,TGI,[58],> 100 µM
